# From patent US20190343908A1, “Therapeutic Combination for the Treatment of Cancer” (Nerium Biotechnology Inc., priority 2011, published 2019)
# Legend:
# [1] = test system: COR-L 105 (non-small cell lung carcinoma); assay: Sulforhodamine B viability assay, COR-L 105; type: cell-based, human; set-up: key to SRB Average: absorbance (optical density) at 570 nm, second wavelength subtracted; conditions: for SRB Average 24 h / SRB Average 48 h / SRB Average 72 h: COR-L 105, Run 3
# From the text: (§1) Three different viability assays were chosen to complement each other and yielded results dependent on concentration and cell line: the Methyl Tetrazolium dye assay, the Sulforhodamine B fluorescent dye assay, and the Crystal Violet dye assay.
# (§2) The Sulforhodamine B and Crystal Violet assays provide information about protein and were used to complement the Methyl-Tetrazolium dye assay. […] It is used for the quantification of cellular proteins of cultured cells. The assay using Crystal Violet, a dye that binds electrostatically to proteins and stains DNA, provides a reliable, simple assay for measuring viability of cells.
# (§3) The Methyl Tetrazolium, Sulforhodamine B, and Crystal Violet assays were used to assess cell viabilities. The incubation times were 24 hours, 48 hours, and 72 hours. The Nerium oleander extract Anvirzel™ (a hot water extract of oleander obtained from Salud Integral, Honduras) was tested in concentrations ranging from 0.01 ng/mL to 10 ng/mL.
# (§4) Cells were detached by trypsinization (Trypsin-0.25% EDTA, Invitrogen, 25200-072) during the logarithmic phase of culture growth and plated in 96-well plates (18.000 cells/well) (Corning, Costar 359) in a final volume of 200 μl of medium per well. […] The absorbance was measured after 24 hours, 48 hours, and 72 hours of incubation.
# (§5) For the Sulforhodamine B assay, 96-well plates were fixed by 10% trichloroacetic acid (Fluka, 91228) and were incubated at 4° C. for 1 hour. Afterwards, plates were rinsed with water and cells were stained with 0.4% Sulforhodamine B (Sigma, 341738), dissolved in 1% acetic acid (Carlo Ebra, 401422) for 15 minutes at room temperature (RT). The unbound stain was washed twice with 1% acetic acid. Finally, 10 mM Tris Buffer pH 10.5 (Sigma, T6791) was added to dissolve the dye.
# (§6) The optical density of each plate was measured on a μQuant spectrophotometer and the data were analyzed with Gen5 software (μQuant Biomolecular Spectrophotometer MQX200 and Gen5™ Microplate Data Collection & Analysis software, BioTek® Instruments. Inc, April 2008). Absorbance was measured at 570 nm for all assays and a second wavelength was measured in order to subtract noise. For the Methyl-Tetrazolium assay this second wavelength was 630 nm and for the Sulforhodamine B and Crystal Violet assays it was 690 nm.
# [2] = test system: CALU-1 (non-small cell lung carcinoma); assay: Sulforhodamine B viability assay, CALU-1; type: cell-based, human
# From the text: as §1, §2, §3, §4, §5, §6
# [3] = test system: PC3 (human prostate cancer); assay: Crystal Violet viability assay, PC3; type: cell-based
# From the text: as §1, §2, §3, §4
# For the Crystal Violet assay, the medium was removed from the 96-well plates, the plates rinsed with PBS (Sigma, P3813) and then the cells were […] by the addition of 10% formalin (MERCK, 1.04003.2500) for 20 minutes at RT. Formalin was removed and 0.25% aqueous crystal violet (Sigma, HT901), dissolved in water, was added for 10 minutes at RT. Unbound Crystal Violet was rinsed by washing with water and finally 33% acetic acid was added to dissolve the dye.
# as §6
compound,measurement,setting,value
N.N.[Cl][Pt][Cl] [cisplatin],SRB Average 24 h,[1]; 0.1 μg/ml CDDP,1.731
same,SRB Average 48 h,[1]; 0.1 μg/ml CDDP,2.759
same,SRB Average 72 h,[1]; 0.1 μg/ml CDDP,2.681
same,SRB Average 24 h,[1]; 1 μg/ml CDDP,1.862
same,SRB Average 48 h,[1]; 1 μg/ml CDDP,2.832
same,SRB Average 72 h,[1]; 1 μg/ml CDDP,2.654
same,SRB Average 24 h,[1]; 10 μg/ml CDDP,1.565
same,SRB Average 48 h,[1]; 10 μg/ml CDDP,2.85
same,SRB Average 72 h,[1]; 10 μg/ml CDDP,2.737
same,SRB Average 24 h,[1]; 100 μg/ml CDDP,1.113
same,SRB Average 48 h,[1]; 100 μg/ml CDDP,2.596
same,SRB Average 72 h,[1]; 100 μg/ml CDDP,2.819
same,SRB Average,"[1]; Run 1, 24 h, 0.1 μg/ml CDDP",1.526
same,SRB Average,"[1]; Run 1, 24 h, 1 μg/ml CDDP",1.714
same,SRB Average,"[1]; Run 1, 24 h, 10 μg/ml CDDP",1.386
same,SRB Average,"[1]; Run 1, 24 h, 100 μg/ml CDDP",1.523
same,SRB Average,"[1]; Run 1, 48 h, 0.1 μg/ml CDDP",1.705
same,SRB Average,"[1]; Run 1, 48 h, 1 μg/ml CDDP",1.716
same,SRB Average,"[1]; Run 1, 48 h, 10 μg/ml CDDP",1.465
same,SRB Average,"[1]; Run 1, 48 h, 100 μg/ml CDDP",1.415
same,SRB Average,"[1]; Run 1, 72 h, 0.1 μg/ml CDDP",1.491
same,SRB Average,"[1]; Run 1, 72 h, 1 μg/ml CDDP",1.356
same,SRB Average,"[1]; Run 1, 72 h, 10 μg/ml CDDP",1.544
same,SRB Average,"[1]; Run 1, 72 h, 100 μg/ml CDDP",1.456
same,SRB Average,"[1]; Run 2, 24 h, 0.1 μg/ml CDDP",1.731
same,SRB Average,"[1]; Run 2, 24 h, 1 μg/ml CDDP",1.862
same,SRB Average,"[1]; Run 2, 24 h, 10 μg/ml CDDP",1.565
same,SRB Average,"[1]; Run 2, 24 h, 100 μg/ml CDDP",1.113
same,SRB Average,"[1]; Run 2, 48 h, 0.1 μg/ml CDDP",2.759
same,SRB Average,"[1]; Run 2, 48 h, 1 μg/ml CDDP",2.832
same,SRB Average,"[1]; Run 2, 48 h, 10 μg/ml CDDP",2.85
same,SRB Average,"[1]; Run 2, 48 h, 100 μg/ml CDDP",2.596
same,SRB Average,"[1]; Run 2, 72 h, 0.1 μg/ml CDDP",2.681
same,SRB Average,"[1]; Run 2, 72 h, 1 μg/ml CDDP",2.654
same,SRB Average,"[1]; Run 2, 72 h, 10 μg/ml CDDP",2.737
same,SRB Average,"[1]; Run 2, 72 h, 100 μg/ml CDDP",2.819
same,Average SRB 24 h,"[2]; CALU-1 Run 1, 0.1 μg/ml CDDP",1.457
same,Average SRB 48 h,"[2]; CALU-1 Run 1, 0.1 μg/ml CDDP",1.939
same,Average SRB 72 h,"[2]; CALU-1 Run 1, 0.1 μg/ml CDDP",1.598
same,Average SRB 24 h,"[2]; CALU-1 Run 1, 1 μg/ml CDDP",1.438
same,Average SRB 48 h,"[2]; CALU-1 Run 1, 1 μg/ml CDDP",1.991
same,Average SRB 72 h,"[2]; CALU-1 Run 1, 1 μg/ml CDDP",1.5
same,Average SRB 24 h,"[2]; CALU-1 Run 1, 10 μg/ml CDDP",1.401
same,Average SRB 48 h,"[2]; CALU-1 Run 1, 10 μg/ml CDDP",1.563
same,Average SRB 72 h,"[2]; CALU-1 Run 1, 10 μg/ml CDDP",1.108
same,Average SRB 24 h,"[2]; CALU-1 Run 1, 100 μg/ml CDDP",1.348
same,Average SRB 48 h,"[2]; CALU-1 Run 1, 100 μg/ml CDDP",1.521
same,Average SRB 72 h,"[2]; CALU-1 Run 1, 100 μg/ml CDDP",1.299
same,Average SRB 24 h,"[2]; CALU-1 Run 2, 0.1 μg/ml CDDP",1.437
same,Average SRB 48 h,"[2]; CALU-1 Run 2, 0.1 μg/ml CDDP",1.79
same,Average SRB 72 h,"[2]; CALU-1 Run 2, 0.1 μg/ml CDDP",2.674
same,Average SRB 24 h,"[2]; CALU-1 Run 2, 1 μg/ml CDDP",1.725
same,Average SRB 48 h,"[2]; CALU-1 Run 2, 1 μg/ml CDDP",1.837
same,Average SRB 72 h,"[2]; CALU-1 Run 2, 1 μg/ml CDDP",2.563
same,Average SRB 24 h,"[2]; CALU-1 Run 2, 10 μg/ml CDDP",1.48
same,Average SRB 48 h,"[2]; CALU-1 Run 2, 10 μg/ml CDDP",1.702
same,Average SRB 72 h,"[2]; CALU-1 Run 2, 10 μg/ml CDDP",2.434
same,Average SRB 24 h,"[2]; CALU-1 Run 2, 100 μg/ml CDDP",1.318
same,Average SRB 48 h,"[2]; CALU-1 Run 2, 100 μg/ml CDDP",1.541
same,Average SRB 72 h,"[2]; CALU-1 Run 2, 100 μg/ml CDDP",1.575
same,Average SRB 24 h,"[2]; CALU-1 Run 3, 0.1 μg/ml CDDP, 24 h",1.492
same,Average SRB 48 h,"[2]; CALU-1 Run 3, 0.1 μg/ml CDDP, 48 h",1.491
same,Average SRB 72 h,"[2]; CALU-1 Run 3, 0.1 μg/ml CDDP, 72 h",1.835
same,Average SRB 24 h,"[2]; CALU-1 Run 3, 1 μg/ml CDDP, 24 h",1.295
same,Average SRB 48 h,"[2]; CALU-1 Run 3, 1 μg/ml CDDP, 48 h",1.463
same,Average SRB 72 h,"[2]; CALU-1 Run 3, 1 μg/ml CDDP, 72 h",1.452
same,Average SRB 24 h,"[2]; CALU-1 Run 3, 10 μg/ml CDDP, 24 h",1.139
same,Average SRB 48 h,"[2]; CALU-1 Run 3, 10 μg/ml CDDP, 48 h",1.152
same,Average SRB 72 h,"[2]; CALU-1 Run 3, 10 μg/ml CDDP, 72 h",1.193
same,Average SRB 24 h,"[2]; CALU-1 Run 3, 100 μg/ml CDDP, 24 h",0.98
same,Average SRB 48 h,"[2]; CALU-1 Run 3, 100 μg/ml CDDP, 48 h",1.449
same,Average SRB 72 h,"[2]; CALU-1 Run 3, 100 μg/ml CDDP, 72 h",1.264
same,CVE Average,"[3]; PC3 Run 1, 24 h, 0.1 μg/ml CDDP",0.73
same,CVE Average,"[3]; PC3 Run 1, 24 h, 1 μg/ml CDDP",0.368
same,CVE Average,"[3]; PC3 Run 1, 24 h, 10 μg/ml CDDP",0.548
same,CVE Average,"[3]; PC3 Run 1, 24 h, 100 μg/ml CDDP",0.337
same,CVE Average,"[3]; PC3 Run 1, 48 h, 0.1 μg/ml CDDP",0.938
same,CVE Average,"[3]; PC3 Run 1, 48 h, 1 μg/ml CDDP",0.483
same,CVE Average,"[3]; PC3 Run 1, 48 h, 10 μg/ml CDDP",0.706
same,CVE Average,"[3]; PC3 Run 1, 48 h, 100 μg/ml CDDP",0.619
same,CVE Average,"[3]; PC3 Run 1, 72 h, 0.1 μg/ml CDDP",1.091
same,CVE Average,"[3]; PC3 Run 1, 72 h, 1 μg/ml CDDP",0.415
same,CVE Average,"[3]; PC3 Run 1, 72 h, 10 μg/ml CDDP",0.64
same,CVE Average,"[3]; PC3 Run 1, 72 h, 100 μg/ml CDDP",0.421
same,CVE Average,"[3]; PC3 Run 2, 24 h, 0.1 μg/ml CDDP",0.489
same,CVE Average,"[3]; PC3 Run 2, 24 h, 1 μg/ml CDDP",0.238
same,CVE Average,"[3]; PC3 Run 2, 24 h, 10 μg/ml CDDP",0.498
same,CVE Average,"[3]; PC3 Run 2, 24 h, 100 μg/ml CDDP",0.309
same,CVE Average,"[3]; PC3 Run 2, 48 h, 0.1 μg/ml CDDP",0.714
same,CVE Average,"[3]; PC3 Run 2, 48 h, 1 μg/ml CDDP",0.393
same,CVE Average,"[3]; PC3 Run 2, 48 h, 10 μg/ml CDDP",0.694
same,CVE Average,"[3]; PC3 Run 2, 48 h, 100 μg/ml CDDP",0.419
same,CVE Average,"[3]; PC3 Run 2, 72 h, 0.1 μg/ml CDDP",0.76
same,CVE Average,"[3]; PC3 Run 2, 72 h, 1 μg/ml CDDP",0.284
same,CVE Average,"[3]; PC3 Run 2, 72 h, 10 μg/ml CDDP",0.526
same,CVE Average,"[3]; PC3 Run 2, 72 h, 100 μg/ml CDDP",0.316
same,CVE Average,"[3]; PC3 Run 3, 24 h, 0.1 μg/ml CDDP",0.653
same,CVE Average,"[3]; PC3 Run 3, 24 h, 1 μg/ml CDDP",0.551
same,CVE Average,"[3]; PC3 Run 3, 24 h, 10 μg/ml CDDP",0.638
same,CVE Average,"[3]; PC3 Run 3, 24 h, 100 μg/ml CDDP",0.301
same,CVE Average,"[3]; PC3 Run 3, 48 h, 0.1 μg/ml CDDP",0.599
same,CVE Average,"[3]; PC3 Run 3, 48 h, 1 μg/ml CDDP",0.4
same,CVE Average,"[3]; PC3 Run 3, 48 h, 10 μg/ml CDDP",0.599
same,CVE Average,"[3]; PC3 Run 3, 48 h, 100 μg/ml CDDP",0.367
same,CVE Average,"[3]; PC3 Run 3, 72 h, 0.1 μg/ml CDDP",0.927
same,CVE Average,"[3]; PC3 Run 3, 72 h, 1 μg/ml CDDP",1.001
same,CVE Average,"[3]; PC3 Run 3, 72 h, 10 μg/ml CDDP",0.666
same,CVE Average,"[3]; PC3 Run 3, 72 h, 100 μg/ml CDDP",0.282
